According to patent publication US20240285571A1, “METHODS OF TREATING BONE INFECTIONS” (MICROBION CORPORATION, priority 2020, published 2024):
Read-outs that look alike come from different tables or passages of the source.

Assays:
C. parapsilosis = C. parapsilosis MMX 2323 (ATCC 22019), cited from earlier work
S. agalactiae = assay: Broth microdilution MIC (Example 5); type: cell-based; settings: Streptococcus agalactiae
Description: (§1) Test and Comparator Agents: The test agents were stored at room temperature until assayed. […] The stock solutions were allowed to stand for at least 1 hr prior to use to auto-sterilize.
(§2) TestMedia: Test media were prepared and stored in accordance with guidelines from CLSI (4, 6, 7).
(§3) Broth Microdilution MC Testing (Aerobic Bacteria and Yeast): The broth microdilution assay method employed for the susceptibility testing of aerobic bacteria (excluding N. gonorrhoeae which was evaluated by agar dilution) and yeast essentially followed the procedures described by CLSI (3, 4, 7, 8) and employed automated liquid handlers to conduct serial dilutions and liquid transfers. […] These would become the ‘mother plates’ from which ‘daughter’ or test plates would be prepared. The drugs (300 μL at 40× the desired top concentration in the test plates) were dispensed into the appropriate well in Column 1 of the mother plates. The Biomek 2000 was used to make serial two-fold dilutions through Column 11 in the “mother plate”. The wells of Column 12 contained no drug and ultimately served as the organism growth control wells.
(§4) The daughter plates were prepared using the Biomek FX which transferred 5 μL of drug solution from each well of a mother plate to the corresponding well of the correct daughter plate in a single step.
(§5) A standardized inoculum of each organism was prepared per CLSI methods (3, 7). Isolated colonies of each test isolate were picked from the primary plate and a suspension was prepared to equal a 0.5 McFarland turbidity standard. Standardized suspensions were then diluted […] (1:100 for yeast, 1:20 for bacteria). After dilution, the inoculum suspensions were then transferred to compartments of sterile reservoirs divided by length (Beckman Coulter), and the Biomek 2000 was used to inoculate all plates. Daughter plates were placed on the Biomek 2000 in reverse orientation so that plates were inoculated from low to high drug concentration.
(§6) The Biomek 2000 delivered 10 μL of standardized inoculum into each well of the appropriate daughter plate for an additional 1:20 dilution.
(§7) Plates were stacked 4 high, covered with a lid on the top plate, placed into plastic bags, and incubated at 35° C. for approximately 24-48 hr for all yeast isolates and 16-24 hr for aerobic bacteria. Plates were viewed from the bottom using a plate viewer. […] MIC endpoints for the test agents and control compounds were read per CLSI criteria (3, 7).

E. faecium = assay: Broth microdilution MIC (Example 5); type: cell-based
Description: as §1, §2, §3, §4, §5, §6, §7

S. pyogenes = assay: Broth microdilution MIC (Example 5); type: cell-based
Description: as §1, §2, §3, §4, §5, §6, §7

S. pneumoniae [1] = assay: Broth microdilution MIC (Example 5); type: cell-based; settings: Streptococcus pneumoniae
Description: as §1, §2, §3, §4, §5, §6, §7

[2] = tested on: vancomycin-intermediate Staphylococcus aureus; assay: Broth microdilution MIC (Example 6); type: cell-based; settings: Staphylococcus aureus, NRS 13 / VISA, read-out: MIC values
Description: Test Compounds: The test agents BisEDT (MB-1-B3; Lot No. ED268-1-11-01), MB-2B, and MB-6 were stored at room temperature, in the dark, until assayed. The solvent and diluent for the test agents was DMSO (Sigma; St. Louis, MO; Lot No. SHBB9319V) and the prepared stock concentration was 6,464 μg/mL (101× the final test concentration).
Test compounds were evaluated at a concentration range of 0.06-64 μg/mL. For Gram-negative test isolates, amikacin and ceftazidime (alone and with clavulanate at a fixed concentration of 4 μg/mL) were evaluated over a concentration range of 0.06-64 μg/mL; meropenem and levofloxacin were evaluated over a concentration range of 0.008-8 μg/mL. For the testing of S. aureus, clindamycin, daptomycin, levofloxacin and vancomycin were evaluated at a concentration range of 0.008-8 μg/mL; linezolid was tested from 0.03-32 μg/mL.
Media: Cation-adjusted Mueller Hinton broth (CAMHB; BD; Lot No. 8190586) was used as the medium for testing (2, 3). For testing daptomycin, calcium was supplemented with […] Ca^2+, resulting in a final concentration of […] Ca^2+ (2, 3).
MIC Assay Procedure: MIC values were determined using a broth microdilution procedure described by CLSI (2, 3). Automated liquid handlers (Multidrop 384, Labsystems, Helsinki, Finland; Biomek 2000 and Biomek F X, Beckman Coulter, Fullerton CA) were used to conduct serial dilutions and liquid transfers.
To prepare the drug mother plates, which would provide the serial drug dilutions for the replicate daughter plates, the wells of columns 2 through 12 of standard 96-well microdilution plates (Costar 3795) were filled with 150 μl of the appropriate diluent for each row of drug. The test articles and comparator compounds (300 μl at 101× the highest concentration to be tested) were dispensed into the appropriate wells in column 1. The Biomek 2000 was then used to make 2-fold serial dilutions in the mother plates from column 1 through column 11. The wells of column 12 contained no drug and served as the organism growth control wells for the assay.
The daughter plates were loaded with 190 μL per well of RPMI using the Multidrop 384. The test panels were prepared on the Biomek FX instrument which transferred 2 μL of drug solution from each well of a mother plate to the corresponding well of each daughter plate in a single step.
A standardized inoculum of each test organism was prepared per CLSI methods to equal a 0.5 McFarland standard, followed by a dilution of 1:20. The plates were then inoculated with 10 μL of the diluted inoculum using the Biomek 2000 from low to high drug concentration resulting in a final concentration of approximately 5×10^5 CFU/mL.
Plates were stacked 3-4 high, covered with a lid on the top plate, placed into plastic bags, and incubated at 35° C. for 16 to 20 hr (vancomycin was read for S. aureus after 24 hr incubation time). The MIC was recorded as the lowest concentration of drug that inhibited visible growth of the organism.

S. pneumoniae [3] = settings: S. pneumoniae MMX 6837 (ATCC 49619); cited from earlier work
E. faecalis = assay: Broth microdilution MIC (Example 5); type: cell-based, Enterococcus faecalis; settings: VRE
Description: as §1, §2, §3, §4, §5, §6, §7

S. aureus = assay: Broth microdilution MIC (Example 5); type: cell-based, Staphylococcus aureus; settings: Staphylococcus aureus
Description: as §1, §2, §3, §4, §5, §6, §7

OC(Cn1cncn1)(Cn1cncn1)c1ccc(F)cc1F [Fluconazole]
1 to 4 µg/mL: CLSI QC range of MIC (C. parapsilosis; 48 hr)
0.5 to 4 µg/mL: CLSI QC range of MIC (C. parapsilosis; 24 hr)

CN[C@H](CC(C)C)C(=O)N[C@H]1C(=O)N[C@@H](CC(N)=O)C(=O)N[C@H]2C(=O)N[C@H]3C(=O)N[C@H](C(=O)N[C@H](C(=O)O)c4cc(O)cc(O)c4-c4cc3ccc4O)[C@H](O)c3ccc(c(Cl)c3)Oc3cc2cc(c3O[C@@H]2O[C@H](CO)[C@@H](O)[C@H](O)[C@H]2O[C@H]2C[C@](C)(N)[C@H](O)[C@H](C)O2)Oc2ccc(cc2Cl)[C@H]1O [Vancomycin]
1 µg/mL: MIC (S. agalactiae; S. agalactiae MMX 4086, ERYR CCR) | MIC (S. aureus; ATCC 29213 / MSSA, S. aureus MMX 101 (ATCC 29213), QC, MSSA) | MIC (S. aureus; MRSA, S. aureus MMX 9204)
0.5 µg/mL: MIC (S. agalactiae; S. agalactiae MMX 3741, ERYR CCR) | MIC (S. agalactiae; S. agalactiae MMX 3743, ERYR CCR) | MIC (S. agalactiae; S. agalactiae MMX 4077, ERYR CCR) | MIC (S. pyogenes; S. pyogenes MMX 3820, ERYR CLIR) | MIC (S. pyogenes; S. pyogenes MMX 3919, ERYR) | MIC (S. pyogenes; S. pyogenes MMX 3929, ERYR CCR) | MIC (S. pyogenes; S. pyogenes MMX 5091, ERYR CCR) | MIC (S. pyogenes; Streptococcus pyogenes) | MIC (S. pneumoniae [1]; S. pneumoniae MMX 880, LevR SXTR CCR EryR PenR) | MIC (S. pneumoniae [1]; S. pneumoniae MMX 937, MemR SXTR CCR EryR PenR) | MIC (S. pneumoniae [1]; S. pneumoniae MMX 3959, CCR EryR)
>64 µg/mL: MIC (E. faecium; E. faecium MMX 485, VRE vanA) | MIC (E. faecalis; E. faecalis MMX 8961) | MIC (E. faecalis; E. faecalis MMX 8962)
(0.12-0.5) μg/mL: CLSI QC range of MIC (S. pneumoniae [3])
2 µg/mL: MIC (S. agalactiae; S. agalactiae MMX 4079, ERYR CCR PenR MEMR) | MIC [2] | MIC (S. aureus; MRSA, S. aureus MMX 5373) | MIC (S. aureus; MRSA, S. aureus MMX 9203) | MIC (S. aureus; MRSA, S. aureus MMX 9205)
0.25 µg/mL: MIC (S. pneumoniae [1]; ATCC49619, S. pneumoniae MMX 6837 (ATCC 49619), QC) | MIC (S. pneumoniae [1]; S. pneumoniae MMX 5440, MemR SXTR CCR EryR PenR) | MIC (S. pneumoniae [1]; S. pneumoniae MMX 5445, MemR SXTR CCR EryR PenR) | MIC (S. pneumoniae [1]; S. pneumoniae MMX 8133, MemR SXTR CCR EryR PenR) | MIC (S. aureus; MRSA, S. aureus MMX 6311)
> 64 µg/mL: MIC (E. faecium; Enterococcus faecium, VRE) | MIC (E. faecalis; Enterococcus faecalis)
